We go through 1 compound from paper PMC9775061 (2022).

Molecules are shown by their SMILES.

Assay [1] has as its system complementary (CAG)3/(CUG)3 RNA duplex (rGG-(CAG)3-CC and rGG-(CUG)3-CC) (RNA, duplex) GGCAGCAGCAGCC/GGCUGCUGCUGCC
Kind of assay: fluorescence turn-on (λex 300 nm). As to conditions: 300 mM NaCl; 20 mM MOPS pH 7.0; 10 µM DB-TPE, 1 eq. duplex; much weaker fluorescence, likely non-specific electrostatic.

Assay [2] deals with rGG-(CAG)6-CC (RNA, repeat) GGCAGCAGCAGCAGCAGCAGCC
The assay can be described thus: fluorescence titration (turn-on, 463 nm, λex 300 nm). To be noted: 300 mM NaCl; 20 mM MOPS pH 7.0; 10 µM DB-TPE; apparent; 1:1 model.

For the compound `CN(C)CCCNC(=N)c1ccc(C(=N)NCCCN(C)Cc2cn(Cc3ccc(C(=C(c4ccccc4)c4ccccc4)c4ccccc4)cc3)nn2)cc1`, in assay [1], the binding result is listed as “weak”. In assay [2], the Kd worked out at 2 µM.
